Test results published in US9970935B2, “Uses of GLI1 in detecting tissue fibrosis” (THE BRIGHAM AND WOMEN'S HOSPITAL, INC., priority 2014, dated 2018).
Entries after “also recorded” stand apart in the source; their conditions may differ.

Assays:
Gli1+ MSC = experiment: Myofibroblast differentiation of Gli1+ MSC in vitro upon TGF-β; type: cell-based, mouse; conditions: for αSMA expression: Gli1+ MSC from bone marrow / bone chips or heart
10T1/2 cells [1] = experiment: Flow cytometric cell-cycle analysis of 10T1/2 cells; type: cell-based, mouse; conditions: for cell-cycle distribution after siRNA knockdown: siRNA 5 nM vs scrambled siRNA
10T1/2 cells [2] = experiment: siRNA knockdown in 10T1/2 cells, mRNA and protein levels; type: cell-based, mouse
Description: For siRNA experiments cells were transfected with siRNA against Gli1 (LIFE SCIENCES, siRNA ID: s66723, Sequence 5'3' Sense: […] NO: 11), Antisense: […] NO: 12)), Gli2 (LIFE SCIENCES, siRNA ID: s66726, Sequence 5'3' Sense: […] NO: 13), Antisense: […] Transfection was performed with a final concentration of 5 nM of each siRNA according to the manufacturer instructions using LIPOFECTAMINE RNAiMAX transfection reagent (LIFE TECHNOLOGIES, #3778075). 72 hours after transfection cells were harvested for RNA or protein isolation. […] Kidney tissue or cell-pellets were harvested and immediately snap frozen in liquid nitrogen. RNA was extracted according to the manufacturer instructions using the RNeasy Mini Kit (QIAGEN) and 600 ng of total RNA was reverse transcribed with iScript (BIORAD). Quantitative polymerase chain reactions were carried out with iQ-SYBR Green supermix (BIORAD) and the BIORAD CFX96 Real Time System with the C1000 Touch Thermal Cycler. […] Glyceraldehyde-3-phosphate dehydrogenase (GAPDH) was used as a housekeeping gene. Data was analyzed using the 2-ΔΔct method. Kidney tissue was snap frozen in liquid nitrogen and stored at -80° C. immediately after mice were killed. Tissue samples were homogenized in lysis buffer containing 10 mM HEPES, pH 7.4, 0.32M sucrose, 2 mM EDTA, 1 mM DTT, 1 mM PMSF and 1 protease inhibitor tablet per 10 ml of lysis buffer (ROCHE Cat. No. 11836153001). Samples were sonicated and protein concentration was determined by the Bradford Assay using BIO-RAD Protein Assay Dye (BIORAD, Cat. No. 500-0006). 10-40 μg of protein from lysates was loaded on a 7.5 or 10% polyacrylamide gel and separated by SDS electrophoresis. […] Following incubation with primary antibody blots were washed probed with respective horseradish-peroxidase conjugated secondary antibodies at 1:5000 (DAKO, Cat. No. P0447, […]) for 1 hour at room temperature and then visualized using the Western Lightning ECL kit from PERKINELMER (#NEL100001EA). Quantification of western bands was performed using ImageJ (NIH).

lung = conditions: in vivo; cited from earlier work
UUO kidneys = experiment: Unilateral ureteral obstruction (UUO) kidney fibrosis model; type: in vivo, mouse
human colon cancer cells = conditions: cited from earlier work
Gli1 and Gli2 = conditions: cited from earlier work
10T1/2 cells [3] = experiment: Western blot of whole cell-lysate from 10T1/2 cells treated with darinaparsin; type: cell-based, mouse; conditions: darinaparsin 0.5 μM, 72 hours
From the text: All cell-lines used within this study were freshly ordered from ATCC and routinely checked for mycoplasma contamination in the inventors' laboratory. 10T1/2 cells (ATCC) and cultured in Basal Medium Eagle (BME, GIBCO; LIFE TECHNOLOGIES) supplemented with 10% fetal bovine serum (FBS), penicillin and streptomycin and 2 mmol/L glutamine (GIBCO). Sonic hedgehog conditioned media was produced from supernatant of confluent Cos7 cells stably transfected with pcDNA3-N-Shh or pcDNA3 control plasmid. For Western blot experiments cells were grown on 10 cm dishes, serum starved in 0.5% FBS for 12 hours and then incubated with darinaparsin (0.5 μM) or vehicle with either Shh preconditioned medium or Cos7 control media (5× i.e., 2 ml preconditioned media in 8 ml BMW 0.5% FBS) for 72 hours.
Kidney tissue was snap frozen in liquid nitrogen and stored at −80° C. immediately after mice were killed. Tissue samples were homogenized in lysis buffer containing 10 mM HEPES, pH 7.4, 0.32M sucrose, 2 mM EDTA, 1 mM DTT, 1 mM PMSF and 1 protease inhibitor tablet per 10 ml of lysis buffer (ROCHE Cat. No. 11836153001). Samples were sonicated and protein concentration was determined by the Bradford Assay using BIO-RAD Protein Assay Dye (BIORAD, Cat. No. 500-0006). 10-40 μg of protein from lysates was loaded on a 7.5 or 10% polyacrylamide gel and separated by SDS electrophoresis. Proteins were transferred to a IMMOBILON membrane (MILLIPORE) blocked in 5% milk in PBST, probed overnight at 4° C. with the primary antibodies: mouse anti-αSMA at 1:4000 (SIGMA, Cat. #A2547), rabbit anti-fibronectin at 1:4000 (ABCAM, #ab23750), rabbit anti-p21 at 1:200 (SANTA CRUZ BIOTECHNOLOGIES, #sc-471), rabbit anti-phospho-retinoblastoma(72) at 1:1000 (CELL SIGNALING #9307S, Ser780), rat anti-Gli1 at 1:1000 (R&D Systems #MAB3324), goat anti-Gli2 at 1:500 (R&D Systems #AF3635), rabbit anti-Cyclin Eat 1:200 (SANTA CRUZ #sc-481), rabbit anti-Cyclin A at 1:200 (SANTA CRUZ BIOTECHNOLOGIES #sc-751), rabbit anti-HA-Tag at 1:5000 (CELL SIGNALING #3724), mouse anti-c-myc (DSHB, Iowa, 9E 10) and rabbit anti-GAPDH at 1:4000 (BETHYL LABORATORIES, #A300-641A). Following incubation with primary antibody blots were washed probed with respective horseradish-peroxidase conjugated secondary antibodies at 1:5000 (DAKO, Cat. No. P0447, P0448, P0450) for 1 hour at room temperature and then visualized using the Western Lightning ECL kit from PERKINELMER (#NEL100001EA). Quantification of western bands was performed using ImageJ (NIH).

Gli2 = target: T1, Gli2 (Homo sapiens, UniProt P10070); experiment: Gli2 darinaparsin binding assay (GST agarose bead pull-down); conditions: 293T cells; for binding to Gli2 (pull-down of myc-tagged Gli2 with GST beads): 0.5 μM darinaparsin or vehicle
T1 construct: 293T cells were transfected with full length Gli2-myc and treated with darinaparsin (DAR) or vehicle (VEH); host or cells: Human 293T/17 (HEK 293T/17, ATCC)
T1 sequence (P10070 whole entry): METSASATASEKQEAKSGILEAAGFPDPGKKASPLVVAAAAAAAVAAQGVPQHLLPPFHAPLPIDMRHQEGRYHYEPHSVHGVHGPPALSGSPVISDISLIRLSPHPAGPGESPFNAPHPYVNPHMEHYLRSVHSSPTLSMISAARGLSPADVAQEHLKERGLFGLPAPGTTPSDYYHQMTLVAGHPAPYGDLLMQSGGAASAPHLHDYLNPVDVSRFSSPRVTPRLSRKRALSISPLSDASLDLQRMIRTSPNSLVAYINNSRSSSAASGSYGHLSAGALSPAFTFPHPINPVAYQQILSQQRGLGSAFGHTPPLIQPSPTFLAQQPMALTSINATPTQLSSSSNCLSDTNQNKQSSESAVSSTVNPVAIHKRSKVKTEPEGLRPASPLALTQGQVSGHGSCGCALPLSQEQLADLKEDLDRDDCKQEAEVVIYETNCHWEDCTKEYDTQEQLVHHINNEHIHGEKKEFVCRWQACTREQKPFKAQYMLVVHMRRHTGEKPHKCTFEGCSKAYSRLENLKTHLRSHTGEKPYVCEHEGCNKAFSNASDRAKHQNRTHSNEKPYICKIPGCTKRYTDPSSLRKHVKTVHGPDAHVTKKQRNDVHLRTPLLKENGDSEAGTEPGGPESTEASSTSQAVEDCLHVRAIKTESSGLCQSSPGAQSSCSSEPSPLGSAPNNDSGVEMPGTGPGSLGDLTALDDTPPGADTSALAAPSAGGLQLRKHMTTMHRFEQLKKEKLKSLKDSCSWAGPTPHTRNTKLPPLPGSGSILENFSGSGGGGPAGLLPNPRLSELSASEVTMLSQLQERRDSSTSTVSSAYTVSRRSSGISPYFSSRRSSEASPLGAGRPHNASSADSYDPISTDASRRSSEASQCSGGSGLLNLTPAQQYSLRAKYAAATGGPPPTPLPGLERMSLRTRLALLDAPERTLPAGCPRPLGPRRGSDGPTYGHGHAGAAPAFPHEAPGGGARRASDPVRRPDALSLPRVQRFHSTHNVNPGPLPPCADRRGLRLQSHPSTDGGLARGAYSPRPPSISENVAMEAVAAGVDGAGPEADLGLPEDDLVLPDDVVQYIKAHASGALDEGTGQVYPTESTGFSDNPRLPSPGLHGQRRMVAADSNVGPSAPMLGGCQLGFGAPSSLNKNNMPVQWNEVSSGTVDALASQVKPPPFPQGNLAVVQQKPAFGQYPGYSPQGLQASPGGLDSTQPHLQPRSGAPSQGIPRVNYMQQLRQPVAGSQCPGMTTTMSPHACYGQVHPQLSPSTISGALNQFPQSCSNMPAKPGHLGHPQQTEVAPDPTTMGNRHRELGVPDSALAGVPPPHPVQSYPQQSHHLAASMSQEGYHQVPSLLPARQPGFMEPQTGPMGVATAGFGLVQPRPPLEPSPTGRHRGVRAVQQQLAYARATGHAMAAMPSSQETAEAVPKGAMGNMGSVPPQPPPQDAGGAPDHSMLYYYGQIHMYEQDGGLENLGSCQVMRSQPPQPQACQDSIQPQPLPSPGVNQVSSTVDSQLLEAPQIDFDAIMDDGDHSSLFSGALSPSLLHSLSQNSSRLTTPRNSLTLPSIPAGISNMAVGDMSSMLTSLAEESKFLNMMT
Description: Human 293T/17 (HEK 293T/17, freshly ordered from ATCC) were grown in a 10 cm cell-culture dish until 80% confluent and transfected with pCS2-MT Gli2 FL kindly provided by Dr. Roessler (49) (ADDGENE Plasmid 17648: pCS2-MT GLI2 FL) using Lipofectamine 2000 (LIFE TECHNOLOGIES) according to the manufacturer instructions. 72 hours after transfection the cells were treated with 0.5 μM darinaparsin or vehicle in DMEM 10% FBS for 12 hours, thereafter cells were resuspended in cold (4° C.) PBS and washed twice with PBS. After centrifugation (1500 rpm, 5 minutes) 1 ml of IP-Lysis Buffer (THERMO SCIENTIFIC)+proteinase inhibtior (ROCHE, #1183617000T) was added to the cell pellet and the suspension was homogenized using an insulin syringe. After centrifugation of the protein-solution (15 min, 12000 rpm) the supernatant was transferred into a fresh tube, an aliquot of 100 μl was taken as input control (FIG. 24) and the solution was incubated with 50 μl GST-Agarose beads (PIERCE GST Agarose #20211, THERMO SCIENTIFIC) for 4 hours on a rotator at 4° C. Thereafter the bead-protein solution was centrifuged (5000 rpm, 3 min) and the supernatant was taken as outflow control (FIG. 24), the agarose beads were washed three times by adding 1 ml of the above mentioned IP-Lysis buffer containing proteinase inhibitors followed by vortexing and centrifugation (5000 rpm, 3 min), the supernatant after each centrifugation was discarded. After 3 washes, the GST beads were cooked at 96° C. for 7 minutes in 100 μl Laemmli buffer (BIO-RAD). All protein samples (input, outflow and the final GST bead purification solution) were analysed by western blot with an antibody against c-myc (mouse monoclonal, 9E 10, DSHB, Iowa) the membrane was stained with Ponceau-S (SIGMA) to show specificity (FIG. 6H).

kidney = conditions: mouse, in vivo
[4] = cited from earlier work
[5] = system: ATO resistant myeloma cell-lines; conditions: cited from earlier work
[6] = siRNA 5 nM, 72 hours after transfection
[7] = GANT61 after UUO, UUO kidneys vs vehicle
[8] = GANT61 after UUO, listed as Gant61

Compound: TGF-β
- αSMA expression (Gli1+ MSC): acquired expression
- αSMA expression (Gli1+ MSC; listed as TGFβ): robust upregulation
- induction of αSMA (Gli1+ MSC; bone marrow-derived Gli1+ MSC purified by FACS): 45 ×

Compound: siRNA against Gli1: siRNA ID s66723, SEQ ID NO: 11 and 12 (chain 1 GCAGGUCUCCUAUCCUGAUTT; chain 2 NAUCAGGAUAGGAGACCUGCTG; chemistry not given here)
- cell-cycle distribution after siRNA knockdown (10T1/2 cells [1]): had no effect
- mRNA and protein levels of Gli1 (10T1/2 cells [2]; [6]): reduced

Compound: CS(=O)(=O)c1ccc(C(=O)Nc2ccc(Cl)c(-c3ccccn3)c2)c(Cl)c1 [GDC-0449]
- fibrosis severity in bleomycin induced lung fibrosis (lung): did not show this effect

Compound: CN(C)c1ccccc1CN1CCCN(Cc2ccccc2N(C)C)C1c1ccncc1 [GANT61]
- interstitial fibrosis (scoring of trichrome stained sections) (UUO kidneys; GANT61 50 mg/kg s.c. at day 1, 2, 3, 5, 7 and 9 after UUO, vs vehicle, 50 mg/kg): significantly reduced; also recorded: significantly less fibrosis
- Gli1 protein level of UUO kidneys (UUO kidneys; GANT61 after UUO): significantly reduced
- Gli2 protein level of UUO kidneys (UUO kidneys; GANT61 after UUO): significantly reduced
- mRNA expression of hedgehog readout Gli1 (UUO kidneys; GANT61 after UUO): reduced
- mRNA expression of hedgehog readout Ptch1 (UUO kidneys; GANT61 after UUO): reduced
- expression of fibrotic readout Coiled (UUO kidneys; [7]): significantly reduced; also recorded: significant lower expression
- expression of fibrotic readout fibronectin (UUO kidneys; [7]): significantly reduced; also recorded: significant lower expression
- expression of fibrotic readout α-SMA (UUO kidneys; [7]): significantly reduced; also recorded: significant lower expression
- mRNA expression of hedgehog readout Gli1 (UUO kidneys; [8]): significant reduction
- mRNA expression of hedgehog readout Ptch1 (UUO kidneys; [8]): significant reduction
- fibrosis severity in bleomycin induced lung fibrosis (lung): decreased fibrosis severity
- cell cycle of human colon cancer cells (human colon cancer cells): induced a G0/G1 arrest
- p21 in human colon cancer cells (human colon cancer cells): upregulation

Compound: Arsenic trioxide [ATO]
- antagonism of Gli1 and Gli2 (Gli1 and Gli2): antagonize both Gli1 and Gli2

Compound: C[As](C)SC[C@H](NC(=O)CC[C@H](N)C(=O)O)C(=O)NCC(=O)O [darinaparsin, S-dimethylarsino-glutathione]
- cell-cycle effect of darinaparsin upon Gli2 overexpression (10T1/2 cells [1]; 10T1/2 cells with retroviral full-length Gli2 vs control virus): rescued the cell-cycle effect; also recorded: rescues the cell cycle effect
- cell-cycle distribution of 10T1/2 cells (10T1/2 cells [1]; darinaparsin 0.5 μM vs vehicle, BrdU/7AAD flow cytometry): induces a G0/G1 cell cycle arrest
- Gli1 protein level (10T1/2 cells [3]): reduced
- Gli2 protein level (10T1/2 cells [3]): reduced
- p21 level (10T1/2 cells [3]): upregulation
- p-Rb level (10T1/2 cells [3]): decreased levels
- enrichment of other nonspecific proteins (Ponceau staining) (Gli2; 0.5 μM darinaparsin): did not result in enrichment
- binding to Gli2 (pull-down of myc-tagged Gli2 with GST beads) (Gli2): binds directly to Gli2
- binding to Gli2 (pull-down of myc-tagged Gli2 with GST beads) (Gli2; listed as DAR): able to pull down Gli2
- fibrotic readouts (UUO kidneys; mouse, in vivo): substantial reductions
- BUN levels (kidney): lower
- interstitial fibrosis (kidney): reduced
- systemic toxicity ([4]; compared to ATO): significantly lower
- tolerated maximum dose compared to ATO ([4]; higher than ATO): 50 fold
- side effect on fast cycling cell populations as the bone marrow or intestine ([4]; reported by Tian et al.): no significant side effect
- susceptibility of ATO resistant myeloma cell-lines [5]: susceptible

Compound: siRNA directed against Gli2: siRNA ID s66726, SEQ ID NO: 13 and 14 (chain 1 GGAAAACUUCAACAAUACATT; chain 2 UGUAUUGUUGAAGUUUUCCAG; chemistry not given here)
- cell-cycle distribution after siRNA knockdown (10T1/2 cells [1]): G0/G1 arrest
- Gli2 expression (10T1/2 cells [2]; [6]): reduced
- mRNA and protein levels of Gli1 (10T1/2 cells [2]; [6]): reduced
- p21 level (10T1/2 cells [2]; siRNA knockdown, western blot): increased levels
- phosphorylated retinoblastoma (Ser780) level (10T1/2 cells [2]; siRNA knockdown, western blot): reduced levels
